Measurements from patent publication US9597347B2, “Compositions for treating obesity and insulin resistance disorders” (President and Fellows of Harvard College, priority 2003, dated 2017).
Entries after “also recorded” stand apart in the source; their conditions may differ.

Experiments:
[1] = system: 3T3-L1 cells; test: Adipocyte differentiation and fat content by Oil Red O staining, 3T3-L1 cells; type: cell-based
Description: To obtain evidence that resveratrol affects fat metabolism in a physiologically relevant cell, we examined the effect of increasing concentrations of resveratrol on 3T3-L1 and NIH3T3 cell differentiation and fat content. 3T3-L1 or NIH3T3 cells were grown to confluence and allowed to pack in for 2 days at which point differentiation was initiated by addition of isobutylmethylxanthine, dexamethasone and insulin in the presence of vehicle (ethanol alone) or resveratrol at concentrations of 0, 12.5 and 25 μM. After 10 days of differentiation, fat content was assessed by Oil Red O staining, as described below. The results, which are shown in FIG. 12, indicate that concentrations of 25 μM or higher resveratrol decreased the quantity of cellular fat in 3T3-L1 and NIH3T3 cells. The results in NIH3T3 cells confirm the results obtained in C. elegans.
We then infected 3T3 preadipoctyes/adipocytes with pMX alone or pMX encoding PPAR-γ and examined the effect of resveratrol on 3T3 cell differentiation. 3T3-L1 and NIH3T3 cells were infected with a plasmid expressing GFP or PPAR-γ and grown to confluence. […]
3T3-L1 and NIH3T3 cells were maintained in DMEM plus 10% calf serum. […] The staining of adipocytes with Oil Red-O and quantitation was performed as described previously (Ramirez-Zacarias J L, Castro-Munozledo F, Kuri-Harcuch W. Histochemistry. 1992 July; 97(6):493-7). […]

[2] = system: AMPK and ACC phosphorylation; test: Western blot of AMPK and ACC phosphorylation in mouse embryonic fibroblasts; type: cell-based; conditions: LKB1−/− cells; 50, 100, 200 μM
Description: Similar results were also observed in mouse embryonic fibroblast (MEFs). […] Cells in the left panel were incubated overnight without serum before harvesting; the cells on the right were not incubated under serum free conditions. […] Tubulin served as a loading control.

[3] = system: C. elegans worms; test: Nile Red fat staining in C. elegans fed RNAi bacteria; type: in vivo
Description: The role of Sir2.1 in fat metabolism was shown in C. elegans worms in which Sir2.1 was RNA inactivated. Young adult worms were grown to adulthood in the presence of bacteria that carry RNAi vector alone or vector encoding Sir2.1 RNAi (R11A8.4), as described below. These worms were grown in the presence or absence of resveratrol, and stained with Nile-Red as described below.
We have examined the C. elegans database and found two gene products that are highly related to mammalian AMPK, TOC1.8 and Par2.3; five genes encoding homologs of CPT-1 and one gene encoding a homolog of COT. C. elegans worms were incubated with bacteria carrying RNAi vector alone, or interfering RNA against TOC1.8 or F41E7.3, a C. elegans homologue of COT in the presence or absence of AICAR. Fat accumulation was visualized with Nile-Red, as described below. […] Thus, AICAR/AMPK signaling to fatty acid oxidation is conserved in worms and mammalian cells.
The effect of TOC1.8 and COT inactivation was then investigated in C. elegans incubated with resveratrol. C. elegans worms were incubated with bacteria carrying RNAi vector alone, or a vector encoding TOC1.8 or COT interfering RNA in the presence or absence of resveratrol. Fat accumulation was visualized with Nile-Red, as described below.
RNAi plates were seeded with HTT5 E. coli carrying either the L4440 RNAi vector control or the specific RNAi clones T01C8.1, AMPK; R11A8.4, sir-2.1; or F41E7.6 COT in the presence or absence of 100 μM resveratrol. Young adults were transferred to plates containing the appropriate vector, Nile Red stain and drug then maintained at 25° C. Nile Red staining was assessed 24 hours after resveratrol treatment by UV microscopy.
HT115 E. Coli carrying the RNAi vector, L4440, were used for maintenance feeding. Bacteria containing experimental RNAi clones were cultured in 10 ml Luria Broth media containing 50 μg/ml ampicillin for 18 hours. 350 μl of each culture was spotted to a 60 mm dish containing NGM agar, 6 mM IPTG and 25 μg/ml carbenicillin. After overnight incubation (at room temp), Nile Red was added on top of each dish to a final concentration of 0.05 μg/ml along with the experimental compounds indicated in the figure legends. Nile Red staining was assessed after 24 hrs by UV microscopy. For each batch of RNAi clones tested, L4440 (vector alone) was included. […] All phenotypes were confirmed by at least three additional rounds of testing.

[4] = system: PPAR-γ; test: Expression of the adipogenic transcription regulator PPAR-γ in 3T3 cells; type: cell-based; conditions: cells exposed to resveratrol during differentiation
Description: AICAR stimulates AMPK signaling and inhibits adipogenesis in 3T3 cells. To distinguish whether the effect of resveratrol was to inhibit differentiation or mobilize fat from 3T3 cells, we examined whether resveratrol inhibited the expression of adipogenic transcription regulators such as PPAR-γ.

**Q.** Which results are given for `Oc1ccc(/C=C/c2cc(O)cc(O)c2)cc1` [resveratrol, 3,5,4′-Trihydroxy-trans-stilbene]?
**A.** concentrations that decreased the quantity of cellular fat ([1]; 10 days of differentiation, 0, 12.5 and 25 μM tested, Oil Red O): ≥ 25 µM; inhibition of 3T3 preadipocyte differentiation ([1]; cells overexpressing PPAR-γ, 0, 25 or 50 μM, eight days of differentiation): partially negated inhibition of 3T3 preadipocyte differentiation by resveratrol; AMPK and ACC phosphorylation [2]: still causes an upregulation of both AMPK and ACC phosphorylation; fat mobilization ([3]; RNA inactivation of DAF-16, or inactivation of DAF-16 by mutation): had no effect on resveratrol-stimulated fat mobilization; fat mobilization ([3]; RNA inactivation of TOC1.8 (AMPK homolog) or F41E7.3 (COT homolog)): blocks resveratrol-stimulated fat mobilization; reduction of fat content ([3]; RNAi vector alone, 100 μM resveratrol, Nile Red assessed after 24 hours): 75%; fat mobilization ([3]; Sir2.1 RNAi (R11A8.4)): did not show resveratrol induced fat mobilization; PPAR-γ RNA / expression [4]: did not show an increase in PPAR-γ RNA; also recorded: marked decrease in PPARγ expression
